Measured values from patent US20140249135A1, “PIM KINASE INHIBITORS AND METHODS OF THEIR USE” (NOVARTIS AG, priority 2007, published 2014).
Where “and” joins values, the source holds several entries; their conditions need not be identical. Equal values may be shown once. Read-outs that look alike come from different tables or passages of the source.

Columns and labels:
[1] = target: Pim1 kinase (Homo sapiens, UniProt P11309); assay: Pim1 ATP depletion assay; assay type: biochemical;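 also: Luciferase-luciferin luminescence readout of residual ATP after PIM1 transfers phosphate to a peptide substrate, 40 µM ATP added, reaction run to roughly half ATP consumption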
Chain of Pim1 kinase (P11309 whole entry): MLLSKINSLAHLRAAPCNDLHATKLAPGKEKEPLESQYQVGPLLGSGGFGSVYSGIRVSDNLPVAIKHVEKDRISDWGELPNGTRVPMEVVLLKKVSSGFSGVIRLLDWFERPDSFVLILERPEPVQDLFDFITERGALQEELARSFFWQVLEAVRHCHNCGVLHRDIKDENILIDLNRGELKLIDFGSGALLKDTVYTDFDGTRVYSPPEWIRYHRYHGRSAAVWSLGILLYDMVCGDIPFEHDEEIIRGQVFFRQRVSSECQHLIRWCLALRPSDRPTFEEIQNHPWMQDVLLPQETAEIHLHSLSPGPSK

[2] = target: Pim2 kinase (Homo sapiens, UniProt Q9P1W9); assay: Pim2 ATP depletion assay; assay type: biochemical;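 also: Luciferase-based luminescent readout of ATP remaining after PIM2 phosphorylates a BAD peptide, final 5 nM enzyme, 4 µM ATP, 10 µM peptide, 2.5% DMSO, run to roughly half ATP consumption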
Chain of Pim2 kinase (Q9P1W9 whole entry): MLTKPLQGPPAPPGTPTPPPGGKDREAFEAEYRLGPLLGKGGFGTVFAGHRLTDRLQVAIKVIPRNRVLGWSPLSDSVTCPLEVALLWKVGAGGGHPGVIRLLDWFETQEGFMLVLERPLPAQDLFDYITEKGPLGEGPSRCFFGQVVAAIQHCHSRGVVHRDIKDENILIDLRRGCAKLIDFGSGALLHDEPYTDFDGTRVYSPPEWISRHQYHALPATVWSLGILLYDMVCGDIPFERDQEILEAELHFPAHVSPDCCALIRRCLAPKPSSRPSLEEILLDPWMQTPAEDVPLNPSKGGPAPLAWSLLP

[3] = target: Pim3 kinase (Homo sapiens, UniProt Q86V86); assay: Pim3 ATP depletion assay; assay type: biochemical
[4] = target: T1, human full length PKCE enzyme (Homo sapiens, UniProt Q02156); assay: In vitro PKCE assay; assay type: biochemical; settings: 10 nM enzyme, 40 uM peptide substrate, 20 uM ATP, KinaseGlo Plus readout; read-out: PKCε IC50
T1 construct: human full length PKCE enzyme purchased from InVitrogen; purchased InVitrogen
T1 sequence (Q02156 1-737): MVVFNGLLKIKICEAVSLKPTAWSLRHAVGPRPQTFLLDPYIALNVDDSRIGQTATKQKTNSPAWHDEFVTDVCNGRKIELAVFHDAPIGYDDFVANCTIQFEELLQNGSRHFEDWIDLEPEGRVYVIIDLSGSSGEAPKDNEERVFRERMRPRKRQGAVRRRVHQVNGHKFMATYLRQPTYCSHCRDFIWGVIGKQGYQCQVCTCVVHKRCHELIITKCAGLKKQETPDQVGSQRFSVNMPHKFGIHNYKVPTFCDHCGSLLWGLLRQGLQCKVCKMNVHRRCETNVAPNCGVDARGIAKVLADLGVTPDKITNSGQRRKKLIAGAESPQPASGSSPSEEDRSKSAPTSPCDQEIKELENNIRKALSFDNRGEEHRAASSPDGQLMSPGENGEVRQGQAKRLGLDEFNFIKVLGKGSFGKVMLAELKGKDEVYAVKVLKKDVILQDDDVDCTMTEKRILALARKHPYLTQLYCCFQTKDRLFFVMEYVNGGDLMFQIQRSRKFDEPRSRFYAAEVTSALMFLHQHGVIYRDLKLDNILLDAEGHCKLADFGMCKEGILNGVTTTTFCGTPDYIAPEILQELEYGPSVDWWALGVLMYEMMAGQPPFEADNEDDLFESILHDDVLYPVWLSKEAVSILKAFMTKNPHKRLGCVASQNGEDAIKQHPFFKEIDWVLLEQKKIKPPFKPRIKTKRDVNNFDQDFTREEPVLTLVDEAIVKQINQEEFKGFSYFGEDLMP

[5] = target: KDR kinase (Homo sapiens, UniProt P35968); assay: KDR AlphaScreen assay; settings: KDR IC50 (μM)
Chain of KDR kinase (P35968 20-1356): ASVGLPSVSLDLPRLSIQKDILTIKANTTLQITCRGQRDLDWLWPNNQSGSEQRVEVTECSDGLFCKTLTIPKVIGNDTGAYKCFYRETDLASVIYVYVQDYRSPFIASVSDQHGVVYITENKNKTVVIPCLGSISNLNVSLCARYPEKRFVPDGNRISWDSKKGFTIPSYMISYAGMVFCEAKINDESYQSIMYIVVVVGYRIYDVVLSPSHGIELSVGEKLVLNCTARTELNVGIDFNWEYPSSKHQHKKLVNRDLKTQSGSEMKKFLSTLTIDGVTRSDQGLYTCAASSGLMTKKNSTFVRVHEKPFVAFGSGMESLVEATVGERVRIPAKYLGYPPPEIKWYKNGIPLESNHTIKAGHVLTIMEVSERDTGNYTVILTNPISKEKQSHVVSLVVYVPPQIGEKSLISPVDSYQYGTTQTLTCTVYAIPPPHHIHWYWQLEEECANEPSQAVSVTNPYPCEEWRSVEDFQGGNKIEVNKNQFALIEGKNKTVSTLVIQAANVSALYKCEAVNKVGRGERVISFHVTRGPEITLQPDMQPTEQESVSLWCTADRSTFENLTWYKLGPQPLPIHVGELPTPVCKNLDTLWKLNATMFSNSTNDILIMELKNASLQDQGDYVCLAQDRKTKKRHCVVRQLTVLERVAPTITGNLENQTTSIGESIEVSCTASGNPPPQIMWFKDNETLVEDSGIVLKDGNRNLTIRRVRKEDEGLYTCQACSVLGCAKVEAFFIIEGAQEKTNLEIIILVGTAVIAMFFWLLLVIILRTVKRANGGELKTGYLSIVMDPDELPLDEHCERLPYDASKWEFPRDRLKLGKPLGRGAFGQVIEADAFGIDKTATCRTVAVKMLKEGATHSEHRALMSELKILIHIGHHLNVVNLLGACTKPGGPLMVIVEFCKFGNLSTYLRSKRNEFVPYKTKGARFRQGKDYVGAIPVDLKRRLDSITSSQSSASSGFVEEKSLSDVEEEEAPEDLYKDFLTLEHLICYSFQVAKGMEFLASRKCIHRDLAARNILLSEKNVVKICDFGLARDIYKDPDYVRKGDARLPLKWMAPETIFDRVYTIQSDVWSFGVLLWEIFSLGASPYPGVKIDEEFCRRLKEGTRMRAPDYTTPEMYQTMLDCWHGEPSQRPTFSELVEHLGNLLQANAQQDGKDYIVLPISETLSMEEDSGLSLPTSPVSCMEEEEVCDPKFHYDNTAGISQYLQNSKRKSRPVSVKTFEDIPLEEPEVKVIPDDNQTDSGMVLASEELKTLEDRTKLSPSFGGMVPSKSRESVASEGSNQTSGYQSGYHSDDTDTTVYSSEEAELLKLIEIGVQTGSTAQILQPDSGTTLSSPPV

[6] = Pim1 ATP depletion assay, read-out: IC50 (μM) PIM1
[7] = Pim1 ATP depletion assay, read-out: PIM1 IC50

Row | Structure (SMILES) | IC50 [1, 6] [µM] | IC50 ([2]; read-out: IC50 (μM) PIM2) [µM] | IC50 ([3]; read-out: IC50 (μM) PIM3) | IC50 [4] [nM] | IC50 [5] [µM] | IC50 [1] [µM] | IC50 [1, 7] [µM] | IC50 ([2]; read-out: PIM2 IC50) [µM] | IC50 ([3]; read-out: PIM3 IC50) [µM]
1 | Nc1ncc(Br)nc1C(=O)Nc1cnccc1N1CCCCC1 [Example 119, 3-amino-6-bromo-N-(4-piperidin-1-ylpyridin-3-yl)pyrazine-2-carboxamide] | < 1 | < 1 | < 1 µM | < 1000 | 1 to 10 |  |  |  | 
2 | Nc1nccnc1C(=O)Nc1cnccc1Cl [Example 125, 3-amino-N-(4-chloropyridin-3-yl)pyrazine-2-carboxamide] | 1 to 10 | > 25 | 10 to 25 µM | 10000 to 25000 | 1 to 10 |  |  |  | 
3 | Nc1ncc(Br)nc1C(=O)Nc1[nH]c(=O)ncc1N1CCCCC1 [Example 132, 3-amino-6-bromo-N-(2-oxo-5-piperidin-1-yl-2,3-dihydro-pyrimidin-4-yl)pyrazine-2-carboxamide] | < 1 | < 1 | < 1 µM | < 1000 | < 1 |  |  |  | 
4 | Nc1nc(N)c(C(=O)Nc2[nH]c(=O)ncc2N2CCCC(N)C2)nc1Cl (stereo not drawn) [Example 134, 3,5-diamino-N-[5-(3-amino-piperidin-1-yl)-2-oxo-2,3-dihydropyrimidin-4-yl]-6-chloropyrazine-2-carboxamide] | < 1 | < 1 | < 1 µM | 1000 to 10000 | 1 to 10 |  |  |  | 
5 | NCC1CCCN(c2cnc(=O)[nH]c2NC(=O)c2nccnc2N)C1 (stereo not drawn) [Example 135, 3-amino-N-{5-[3-(amino-methyl)piperidin-1-yl]-2-oxo-2,3-dihydropyrimidin-4-yl}-pyrazine-2-carboxamide] | < 1 | < 1 | < 1 µM | < 1000 | 1 to 10 |  |  |  | 
6 | NCC(=O)N1CCN(c2ccncc2NC(=O)c2nc(Cl)c(N)nc2N)CC1 [Example 186, 3,5-diamino-N-{4-[4-(amino-acetyl)piperazin-1-yl]pyridin-3-yl}-6-chloropyrazine-2-carboxamide] | < 1 | < 1 | < 1 µM | 1000 to 10000 | 1 to 10 |  |  |  | 
7 | Nc1nccnc1C(=O)Nc1cccnc1N1CCCC(N)C1 (stereo not drawn) [Example 196, 3-amino-N-[2-(3-aminopiperidin-1-yl)pyridin-3-yl]pyrazine-2-carboxamide] | 1 to 10 | 10 to 25 | 1 to 10 µM | 1000 to 10000 | > 25 |  |  |  | 
8 | Nc1nccnc1C(=O)Nc1cnccc1N1CCCNCC1 [Example 199, 3-amino-N-[4-(1,4-diazepan-1-yl)pyridin-3-yl]pyrazine-2-carboxamide] | 1 to 10 | > 25 | > 25 µM and 10 to 25 µM | 1000 to 10000 | 1 to 10 |  |  |  | 
9 | Nc1ncc(Br)nc1C(=O)Nc1ccccc1N1CCNCC1 [Example 206, 3-amino-6-bromo-N-(2-piperazin-1-ylphenyl)pyrazine-2-carboxamide] | < 1 | 1 to 10 | < 1 µM | < 1000 | 1 to 10 |  |  |  | 
10 | NC(=O)c1cccc(-c2cnc(N)c(C(=O)Nc3ccccc3N3CCCC(N)C3)n2)c1 (stereo not drawn) [Example 373, 3-amino-6-(3-carbamoyl-phenyl)-pyrazine-2-carboxylic acid [2-(3-amino-piperidin-1-yl)-phenyl]-amide] |  |  |  | < 1000 | < 1 |  |  |  | 
11 | COc1ccc(-c2cnc(N)c(C(=O)Nc3ccccc3N3CCCC(N)C3)n2)cc1 (stereo not drawn) [Example 375, 3-amino-6-(4-methoxy-phenyl)-pyrazine-2-carboxylic acid [2-(3-amino-piperidin-1-yl)-phenyl]-amide] |  |  |  | < 1000 | 1 to 10 |  |  |  | 
12 | Nc1cnc(-c2ccccc2F)nc1C(=O)Nc1cnccc1N1CCC[C@H](O)C1 [Example 649, 5-Amino-2-(2-fluoro-phenyl)-pyrimidine-4-carboxylic acid (3-hydroxy-3,4,5,6-tetrahydro-2H-[1,4′]bipyridinyl-3′-yl)-amide] |  |  |  |  | 10 to 25 |  | < 1 | < 1 | < 1
13 | Nc1cnc(-c2ccccc2)nc1C(=O)Nc1cnccc1N1CCC[C@H](O)C1 [Example 650, 5-Amino-2-phenyl-pyrimidine-4-carboxylic acid (3-hydroxy-3,4,5,6-tetrahydro-2H-[1,4′]bi-pyridinyl-3′-yl)-amide] |  |  |  |  | 10 to 25 |  | < 1 | < 1 | < 1

Results, then the compound that gave them:

Row | IC50 [1, 6] [µM] | IC50 ([2]; read-out: IC50 (μM) PIM2) [µM] | IC50 ([3]; read-out: IC50 (μM) PIM3) | IC50 [4] [nM] | IC50 [5] [µM] | IC50 [1] [µM] | IC50 [1, 7] [µM] | IC50 ([2]; read-out: PIM2 IC50) [µM] | IC50 ([3]; read-out: PIM3 IC50) [µM] | Structure (SMILES)
14 | < 1 | 1 to 10 | < 1 µM | < 1000 | < 1 |  |  |  |  | Nc1nccnc1C(=O)Nc1cnccc1C1=CCCCC1 [Example 118, 3-amino-N-(4-cyclohex-1-en-1-ylpyridin-3-yl)pyrazine-2-carboxamide]
15 | < 1 | < 1 | < 1 µM | > 25000 | < 1 |  |  |  |  | Nc1nc(N)c(C(=O)Nc2cnccc2N2CCCCC2)nc1Cl [Example 121, 3,5-diamino-6-chloro-N-(4-piperidin-1-ylpyridin-3-yl)-pyrazine-2-carboxamide]
16 | 1 to 10 | > 25 | > 25 µM | 1000 to 10000 | > 25 |  |  |  |  | Nc1nccnc1C(=O)Nc1cnccc1N1CCC2(CC1)OCCO2 [Example 127, 3-amino-N-[4-(1,4-dioxa-8-azaspiro[4.5]dec-8-yl)pyridin-3-yl]pyrazine-2-carboxamide]
17 | < 1 | < 1 | < 1 µM | > 25000 | 1 to 10 |  |  |  |  | NC(=O)c1ccc(N2CCCCC2)c(NC(=O)c2nc(Br)cnc2N)c1 [Example 133, 3-amino-6-bromo-N-(5-carbamoyl-2-piperidin-1-yl-phenyl)pyrazine-2-carboxamide]
18 |  | 1 to 10 | < 1 µM | < 1000 | 1 to 10 | < 1 |  |  |  | NCCC(=O)N1CCN(c2ccncc2NC(=O)c2nccnc2N)CC1 [Example 188, 3-amino-N-{4-[4-(3-aminopropanoyl)piperazin-1-yl]pyridin-3-yl}pyrazine-2-carboxamide]
19 | < 1 | < 1 | < 1 µM | < 1000 | 1 to 10 |  |  |  |  | Nc1ncc(Br)nc1C(=O)Nc1ccccc1N1CCCC(N)C1 (stereo not drawn) [Example 204, 3-amino-N-[2-(3-aminopiperidin-1-yl)phenyl]-6-bromopyrazine-2-carboxamide]
20 | < 1 | < 1 | < 1 µM | < 1000 | 1 to 10 |  |  |  |  | COc1ccc(N2CCC(N)CC2)c(NC(=O)c2nc(Br)cnc2N)c1 [Example 211, 3-amino-N-[2-(4-aminopiperidin-1-yl)-5-methoxyphenyl]-6-bromopyrazine-2-carboxamide]
21 |  |  |  | < 1000 | 1 to 10 |  |  |  |  | Nc1ncc(-c2ccccc2F)nc1C(=O)Nc1ccccc1N1CCCC(N)C1 (stereo not drawn) [Example 374, 3-amino-6-(2-fluoro-phenyl)-pyrazine-2-carboxylic acid [2-(3-amino-piperidin-1-yl)-phenyl]-amide]
22 |  |  |  | 1000 to 10000 | < 1 |  |  |  |  | Cc1ccccc1-c1cnc(N)c(C(=O)Nc2[nH]c(=O)ncc2N2CCCC(N)C2)n1 (stereo not drawn) [Example 400, 3-amino-6-o-tolyl-pyrazine-2-carboxylic acid [5-(3-amino-piperidin-1-yl)-2-oxo-2,3-dihydro-pyrimidin-4-yl]-amide]
